Read-outs that look alike come from different tables or passages of the source.
How the values were obtained:
[1] = Pharmacokinetics of JHG components in pulmonary fibrosis (PF) model rats after intragastric administration of JHGs (plasma, Orbitrap Fusion MS); type: in vivo, Sprague Dawley (SD) rats; conditions: for Cmax, PF model group compared with the control group: medium dose selected for comparison; for AUCs, PF model group compared with the control group: p < 0.05; for Tmax / half-life / MRT last / Cmax / AUC(0-inf) / AUC(0-t) / MRT inf: male, rat, plasma, po; for pharmacokinetic process (versus dosage): low, medium, high doses of JHGs; for MRT last: read-out: MRT(0-t); for Cmax: intragastric JHGs; for MRT inf: read-out: MRT(0-∞)
Protocol: Healthy male Sprague Dawley (SD) rats of SPF grade (240 ± 20 g) were purchased from Sipeifu (Beijing, China) Biotechnology Co., Ltd. (Beijing, China), Certificate of Conformity No.: SCYK (Beijing, China) 2019-0015, Animal Quality Certificate No.: 110324220102348616. They were housed in the Animal Center of Henan University of Traditional Chinese Medicine, which passed the ethical audit, ethics number: DWLL202208003, breeding Co. 24 °C, relative humidity 50 ± 2%. The animals fasted for 12 h before the experiment and drank water freely. All feeding and experimental studies on experimental animals were in accordance with the regulations on the Management of Experimental Animals in Henan Province.
The PF model in rats was replicated by reference to the conclusion tracheal intubation method in the literature. After the rats were anesthetized, bleomycin (BLM) (5 mg/kg) was used as an induction agent and followed the tracheal intubation method. BLM solution was aspirated with a 1 mL syringe and injected into the indwelling syringe. A total of 0.3 mL of air was rapidly pushed into the syringe, the rats were immediately stroked upright so that the BLM solution was evenly distributed in both lungs. BLM was given on day 0 for modeling, then gavage was taken after day 28, with fasting without water for 12 h before sampling. The histopathological examination was performed to verify the construction of the PF model. The rats were anesthetized by the abdominal cavity, then the lung tissues were violently shocked by opening the chest, and the right lower lobe of the lung was taken and fixed in 4% formaldehyde solution, then dehydrated by sucrose gradient, paraffin-embedded, and sectioned. H&E and Masson staining were performed to observe the degree of alveolitis of lung tissue and the degree of pulmonary fibrosis, respectively. The inflammation and fibrosis of lung tissues was observed under the light microscope.
Twenty-four healthy male SD rats or PF model rats, weighing 240 ± 20 g, fasted for 12 h before the experiment and drank water freely. Both kinds of rats were randomly divided into four groups. Blank group: equal dose of water by intragastric, low dose; administration group: rats were given the equivalent human dose of JHGs by intragastric, i.e., 10.8 g of raw drug/kg/d (5.70 g/kg/d); medium-dose administration group: 2 times the human equivalent dose of JHGs by intragastric, i.e., 21.6 g of raw drug/kg/d (11.41 g/kg/d); high-dose administration group: 4 times the human equivalent dose of JHG, i.e., 43.2 g of raw drug/kg/d (22.81 g/kg/d). Blood was collected from the tail vein before and 0.083, 0.25, 0.5, 0.75, 1, 1.5, 2, 3, 4, 6, 8, 12, 18, and 24 h after dosing, respectively. A total of 0.5 mL was placed in a heparin sodium centrifuge tube. Whole blood was left for 30 min and then centrifuged in a low-temperature freezing centrifuge (4 °C, 3000 r/min) for 15 min. The upper layer of plasma was collected and stored in a refrigerator at −80 °C.
We added 50 μL of internal standard solution and 800 μL of methanol, shook for 15 min, then centrifuged at 12,000 r/min for 10 min, took the supernatant, dried in a centrifuge concentrator, added 50 μL of the initial mobile phase to the residue, dissolved, centrifuged, then separated the upper layer of the solution used as the test solution. A total of 5 μL test solution was taken into the sample for analysis. For each compound with a certain dosage, the same procedure is repeated six times in parallel. The concentration in plasma was calculated by the internal standard method.
Accucore C18 (100 mm × 2.1 mm, 2.6 μm) column at 25 °C, the mobile phase was methanol (A)-0.1% formic acid aqueous solution (B). The gradient elution program was 0–4 min (65% B-40% B), 4–5 min (40% B-40% B), 5–6 min (40% B-28% B), and 6–7 min (28% B-19% B), 7–7.5 min (19% B-10% B), 7.5–11 min (10% B-0% B), the flow rate was 0.2 mL/min, and the injection volume was 5 μL. […]

[2] = after oral administration; cited from earlier work
[3] = Sprague-Dawley, PF model rats, after administration of JHGs, read-out: Tmax of all dosages
[4] = PF model rats, JHGs high dose 22.81 g/kg/d
[5] = PF model rats, JHGs low dose 5.70 g/kg/d
[6] = PF model rats, JHGs medium dose 11.41 g/kg/d
[7] = Sprague Dawley, 5.7 g/kg/day, PF model rats, JHGs low dose 5.70 g/kg/d
[8] = Sprague Dawley, 5.7 g/kg/day, PF model rats, JHGs low dose 5.70 g/kg/d, read-out: Tmax
[9] = Sprague Dawley, 5.7 g/kg/day, PF model rats, low dose 5.70 g/kg/d, n=6 (1st of 3 stacked values)
[10] = Sprague Dawley, 11.41 g/kg/day, PF model rats, JHGs medium dose 11.41 g/kg/d
[11] = Sprague Dawley, 11.41 g/kg/day, PF model rats, JHGs medium dose 11.41 g/kg/d, read-out: Tmax
[12] = Sprague Dawley, 11.41 g/kg/day, PF model rats, medium dose 11.41 g/kg/d, n=6 (2nd of 3 stacked values)
[13] = Sprague Dawley, 22.81 g/kg/day, PF model rats, JHGs high dose 22.81 g/kg/d
[14] = Sprague Dawley, 22.81 g/kg/day, PF model rats, JHGs high dose 22.81 g/kg/d, read-out: Tmax
[15] = Sprague-Dawley, 5.7 g/kg/day, PF model rats, JHGs low dose 5.70 g/kg/d
[16] = Sprague-Dawley, 11.41 g/kg/day, PF model rats, JHGs medium dose 11.41 g/kg/d
[17] = Sprague-Dawley, 22.81 g/kg/day, PF model rats, JHGs high dose 22.81 g/kg/d
[18] = Sprague-Dawley, 22.81 g/kg/day, PF model rats, high dose 22.81 g/kg/d, n=6 (3rd of 3 stacked values)

Compound | Tmax [1, 3] | Clearances [1, 4] | Vss [1, 4] | Clearances [1, 5] | Vss [1, 5] | Clearances [1, 6] | Vss [1, 6] | half-life [1, 7] | MRT last [1, 7] | Tmax [1, 8] | Cmax [1, 9] | half-life [1, 10] | MRT last [1, 10] | Tmax [1, 11] | Cmax [1, 12] | half-life [1, 13] | Tmax [1, 14] | AUC(0-inf) [1, 15] | AUC(0-t) [1, 15] | MRT inf [1, 15] | other results
O=c1cc(-c2ccc(O)cc2)oc2cc(OC3OC(CO)C(O)C(O)C3O)cc(O)c12 (stereo not shown) [Apigenin-7-glucoside] | ≤ 2 h |  |  |  |  |  |  |  |  |  |  |  |  |  |  |  |  |  |  |  | Tmax, PF model group compared with the control group ([1]; PF model vs control rats): decreased significantly; Cmax, PF model group compared with the control group ([1]; PF model vs control rats): significantly decreased; AUCs, PF model group compared with the control group ([1]; PF model vs control rats): significantly decreased
O=c1cc(-c2ccc(O)c(O)c2)oc2cc(O[C@@H]3O[C@H](CO)[C@@H](O)[C@H](O)[C@H]3O)cc(O)c12 [Cynaroside] |  |  |  |  |  |  |  |  |  |  |  |  |  |  |  |  |  |  |  |  | Cmax and AUCs (AUC(0–t), AUC (0–∞)) compared among the analytes ([1]; PF model rats): highest; correlation between CL, AUC, t½, and dose ([1]; PF model rats): there was a correlation; pharmacokinetic process (versus dosage) ([1]; PF model rats): linear pharmacokinetic process; AUC(0–t) in the model group relative to the control group ([1]; PF model vs control rats): approximately twice as high; Cmax in the model group relative to the control group ([1]; PF model vs control rats): approximately twice as high
COc1ccc(-c2cc(=O)c3c(OC)c(OC)c(OC)c(OC)c3o2)cc1OC [Nobiletin] | ≤ 2 h | 1307 ± 264.2 mL/min/kg | 864 ± 195.9 L | 119 ± 11.8 mL/min/kg | 166.86 ± 26.65 L | 327.5 ± 83.7 mL/min/kg | 769.75 ± 168.2 L | 17.6 ± 1.82 h | 8.86 ± 0.2 h | 0.75 h | 2.97 ± 0.67 ng/mL | 31.5 ± 13.3 h | 9.13 ± 0.25 h | 0.75 h | 3.37 ± 0.53 ng/mL | 9.59 ± 3.39 h | 0.75 h | 33.4 ± 4.41 ng·h/mL | 21.6 ± 3.48 ng·h/mL | 23.2 ± 2.12 h | AUC(0-inf) [1, 16]: 43.1 ± 11.1 ng·h/mL; AUC(0-t) [1, 16]: 20 ± 2.62 ng·h/mL; MRT inf [1, 16]: 41.8 ± 18.4 h; AUC(0-inf) [1, 17]: 18 ± 3.39 ng·h/mL; AUC(0-t) [1, 17]: 15.5 ± 2.99 ng·h/mL; MRT last [1, 17]: 6.66 ± 0.35 h; MRT inf [1, 17]: 11.1 ± 1.44 h; Cmax [1, 18]: 3.57 ± 0.3 ng/mL
COc1ccc(C(C)=O)c(O)c1 [Paeonol] | ≤ 2 h | 4714 ± 1513 mL/min/kg | 12017.41 ± 3866.6 L | 1560 ± 427.7 mL/min/kg | 2980.29 ± 449.33 L | 5269.7 ± 1130 mL/min/kg | 8115.77 ± 895.52 L | 25.5 ± 8.84 h | 9.14 ± 0.1 h | 0.5 h | 2.79 ± 0.6 ng/mL | 19.2 ± 6.63 h | 9.7 ± 0.37 h | 0.75 h | 3.16 ± 0.22 ng/mL | 36.4 ± 25.6 h | 3 h | 41.8 ± 12.1 ng·h/mL | 21.8 ± 2.86 ng·h/mL | 33.8 ± 11.4 h | Cmax, PF model group compared with the control group ([1]; PF model vs control rats): significantly decreased; AUCs, PF model group compared with the control group ([1]; PF model vs control rats): significantly decreased; AUC(0-inf) [1, 16]: 41.6 ± 9.78 ng·h/mL; AUC(0-t) [1, 16]: 24.5 ± 2.15 ng·h/mL; MRT inf [1, 16]: 26.9 ± 8.95 h; AUC(0-inf) [1, 17]: 83.4 ± 34.3 ng·h/mL; AUC(0-t) [1, 17]: 35 ± 1.86 ng·h/mL; MRT last [1, 17]: 9.41 ± 0.4 h; MRT inf [1, 17]: 49.6 ± 33.3 h; Cmax [1, 18]: 3.63 ± 0.33 ng/mL; bioavailability in vivo [2]: poor
CC1=C2CC3C(CC(=O)C4CC(O)CCC43C)C2CCC12OC1CC(C)CNC1C2C (stereo not shown) [Peimisine] |  | 5.83 ± 1 mL/min/kg | 4.24 ± 0.61 L | 2.33 ± 0.33 mL/min/kg | 1.62 ± 0.32 L | 4.33 ± 0.83 mL/min/kg | 2.91 ± 0.52 L | 7.2 ± 0.28 h | 7.56 ± 0.17 h | 1.5 h | 2.05 ± 0.49 ng/mL | 8.25 ± 0.94 h | 7.92 ± 0.2 h | 3.67 ± 0.58 h | 2.51 ± 0.55 ng/mL | 5.96 ± 0.23 h | 8 h | 14.6 ± 2.48 ng·h/mL | 12.3 ± 2.23 ng·h/mL | 11.8 ± 0.51 h | pharmacokinetic process (versus dosage) ([1]; PF model rats): linear pharmacokinetic process; MRT(0–t), PF model group compared with the control group ([1]; PF model vs control rats): decreased; AUC(0-inf) [1, 16]: 26.8 ± 5.8 ng·h/mL; AUC(0-t) [1, 16]: 23.4 ± 5.01 ng·h/mL; MRT inf [1, 16]: 11.4 ± 1.05 h; AUC(0-inf) [1, 17]: 33.1 ± 6.82 ng·h/mL; AUC(0-t) [1, 17]: 29.7 ± 5.82 ng·h/mL; MRT last [1, 17]: 9.84 ± 0.24 h; MRT inf [1, 17]: 12.2 ± 0.39 h; Cmax [1, 18]: 2.76 ± 0.48 ng/mL

— paper PMC10534582, “A Pharmacokinetic Study of Sixteen Major Bioactive Components of Jinshui-Huanxian Granules in Pulmonary Fibrosis Model and Control Rats Using Orbitrap Fusion Mass Spectrometry” (Molecules, 2023)
